ChEMBL document CHEMBL5154804, “Species-Selective Targeting of Fungal Hsp90: Design, Synthesis, and Evaluation of Novel 4,5-Diarylisoxazole Derivatives for the Combination Treatment of Azole-Resistant Candidiasis” (J Med Chem, 2022)
Activity calls are given as the source filed them. No cut-off for these calls is given here.

How the values were obtained:
[1] = Binding affinity to recombinant Candida albicans Hsp90 NBD expressed in Escherichia coli by SPR assay
[2] = target: Heat shock protein HSP90 (Homo sapiens, UniProt P07900+P08238); assay: Binding affinity to human Hsp90 expressed in Escherichia coli by SPR assay
[3] = target: CYP2C9 (Homo sapiens, UniProt P11712); assay: Inhibition of CYP2C9 in human liver microsome at 10 uM using diclofenac as substrate incubated for 10 mins in presence of NADPH cofactor and fluconazole by LC-MS/MS analysis; assay type: ADME; conditions: liver microsomes, probe diclofenac
[4] = MRT (0 to infinity) in Sprague-Dawley rat at 10 mg/kg, iv measured upto 24 hrs by LC/MS/MS analysis; assay type: ADME, organism-based; conditions: in vivo
[5] = tested on: Rattus norvegicus; assay: In vivo antifungal activity against azole resistant Candida albicans 904 infected in rat assessed as aggregation of inflammatory leukocytes at 10 mg/kg, ip administered for 5 days, qd by PAS and HE staining based microscopy; assay type: functional, organism-based; conditions: time 5.0 day
[6] = AUC (0 to t) in Sprague-Dawley rat at 10 mg/kg, iv measured upto 24 hrs by LC/MS/MS analysis; assay type: ADME, organism-based; parameters: time < 24 hrs, dose 10 mg/kg, route iv; conditions: in vivo
[7] = Volume of distribution in Sprague-Dawley rat at 10 mg/kg, iv measured upto 24 hrs by LC/MS/MS analysis; assay type: ADME, organism-based; conditions: in vivo
[8] = C0 in Sprague-Dawley rat at 10 mg/kg, iv measured upto 24 hrs by LC/MS/MS analysis; assay type: ADME, organism-based; conditions: in vivo
[9] = Metabolic stability in rat liver microsomes assessed as intrinsic clearance in presence of NADPH cofactor under shaking condition for 10 mins measured after 5 to 60 mins by LC-MS/MS analysis; assay type: ADME, Microsome; conditions: time 15-70 min
[10] = target: CYP2D6 (Homo sapiens, UniProt P10635); assay: Inhibition of CYPD6 in human liver microsome at 10 uM using dextromethorphan as substrate incubated for 10 mins in presence of NADPH cofactor and fluconazole by LC-MS/MS analysis; assay type: ADME; conditions: liver microsomes, probe dextromethorphan
[11] = target: T1, CYP1A2 (Homo sapiens, UniProt P05177); assay: Inhibition of CYP1A2 in human liver microsome at 10 uM using phenacetin as substrate incubated for 10 mins in presence of NADPH cofactor and fluconazole by LC-MS/MS analysis; assay type: ADME; conditions: liver microsomes, probe phenacetin
T1 sequence (P05177 whole entry): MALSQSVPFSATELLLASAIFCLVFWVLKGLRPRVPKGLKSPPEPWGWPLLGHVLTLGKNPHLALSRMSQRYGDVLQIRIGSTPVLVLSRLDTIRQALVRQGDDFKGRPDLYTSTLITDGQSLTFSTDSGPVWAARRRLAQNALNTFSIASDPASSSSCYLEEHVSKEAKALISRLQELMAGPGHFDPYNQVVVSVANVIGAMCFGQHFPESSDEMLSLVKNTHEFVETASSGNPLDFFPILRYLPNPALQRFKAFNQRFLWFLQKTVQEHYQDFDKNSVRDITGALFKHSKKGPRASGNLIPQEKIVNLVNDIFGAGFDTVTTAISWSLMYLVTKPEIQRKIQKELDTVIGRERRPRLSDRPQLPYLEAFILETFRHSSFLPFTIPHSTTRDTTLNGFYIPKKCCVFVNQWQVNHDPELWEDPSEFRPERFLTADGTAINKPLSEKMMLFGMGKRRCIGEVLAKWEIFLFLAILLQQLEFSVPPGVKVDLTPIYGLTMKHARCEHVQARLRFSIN

[12] = tested on: Rattus norvegicus; assay: In vivo antifungal activity against azole resistant Candida albicans 904 infected in rat assessed as reduction in kidney fungal burden at 10 mg/kg, ip administered for 5 days, qd in presence of fluconazole; assay type: functional, organism-based; conditions: time 5.0 day
[13] = target: CYP2C19 (Homo sapiens, UniProt P33261); assay: Inhibition of CYP2C19 in human liver microsome at 10 uM using S-mephenytoin as substrate incubated for 10 mins in presence of NADPH cofactor and fluconazole by LC-MS/MS analysis; assay type: ADME; conditions: liver microsomes, probe S-mephenytoin
[14] = tested on: Rattus norvegicus; assay: In vivo antifungal activity against azole resistant Candida albicans 904 infected in rat assessed as decrease in fungal invasion at 10 mg/kg, ip in presence of fluconazole administered for 5 days, qd by PAS and HE staining based microscopy; assay type: functional, organism-based; conditions: time 5.0 day
[15] = Metabolic stability in rat liver microsomes assessed as half life in presence of NADPH cofactor under shaking condition for 10 mins measured after 5 to 60 mins by LC-MS/MS analysis; assay type: ADME, Microsome; conditions: time 15-70 min

Sequence of CYP2C9 (P11712 whole entry): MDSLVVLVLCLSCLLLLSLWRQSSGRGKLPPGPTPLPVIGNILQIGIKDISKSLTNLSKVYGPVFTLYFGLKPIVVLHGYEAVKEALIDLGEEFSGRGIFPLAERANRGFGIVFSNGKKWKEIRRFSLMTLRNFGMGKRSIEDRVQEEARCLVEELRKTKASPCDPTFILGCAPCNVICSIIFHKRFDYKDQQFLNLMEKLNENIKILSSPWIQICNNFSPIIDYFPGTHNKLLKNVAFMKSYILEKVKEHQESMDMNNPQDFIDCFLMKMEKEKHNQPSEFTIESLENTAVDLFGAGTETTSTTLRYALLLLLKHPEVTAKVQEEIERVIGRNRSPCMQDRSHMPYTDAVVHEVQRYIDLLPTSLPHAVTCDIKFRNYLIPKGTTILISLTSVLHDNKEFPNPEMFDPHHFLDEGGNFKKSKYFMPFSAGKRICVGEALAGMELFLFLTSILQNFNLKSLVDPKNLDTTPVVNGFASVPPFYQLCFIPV
Sequence of CYP2D6 (P10635 whole entry): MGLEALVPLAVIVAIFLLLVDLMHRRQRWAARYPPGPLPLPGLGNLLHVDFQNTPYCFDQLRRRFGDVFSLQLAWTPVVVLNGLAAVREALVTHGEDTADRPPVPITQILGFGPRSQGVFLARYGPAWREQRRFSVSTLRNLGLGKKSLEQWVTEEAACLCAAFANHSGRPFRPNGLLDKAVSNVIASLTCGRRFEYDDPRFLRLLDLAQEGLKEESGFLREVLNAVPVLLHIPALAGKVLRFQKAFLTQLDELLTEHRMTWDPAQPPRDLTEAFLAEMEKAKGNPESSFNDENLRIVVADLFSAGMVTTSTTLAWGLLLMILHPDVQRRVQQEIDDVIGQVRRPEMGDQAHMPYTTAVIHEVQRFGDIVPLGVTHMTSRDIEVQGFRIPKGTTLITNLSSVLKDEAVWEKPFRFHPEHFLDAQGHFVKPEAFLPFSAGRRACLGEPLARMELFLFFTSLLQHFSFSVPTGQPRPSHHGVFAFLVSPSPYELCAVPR
Sequence of CYP2C19 (P33261 whole entry): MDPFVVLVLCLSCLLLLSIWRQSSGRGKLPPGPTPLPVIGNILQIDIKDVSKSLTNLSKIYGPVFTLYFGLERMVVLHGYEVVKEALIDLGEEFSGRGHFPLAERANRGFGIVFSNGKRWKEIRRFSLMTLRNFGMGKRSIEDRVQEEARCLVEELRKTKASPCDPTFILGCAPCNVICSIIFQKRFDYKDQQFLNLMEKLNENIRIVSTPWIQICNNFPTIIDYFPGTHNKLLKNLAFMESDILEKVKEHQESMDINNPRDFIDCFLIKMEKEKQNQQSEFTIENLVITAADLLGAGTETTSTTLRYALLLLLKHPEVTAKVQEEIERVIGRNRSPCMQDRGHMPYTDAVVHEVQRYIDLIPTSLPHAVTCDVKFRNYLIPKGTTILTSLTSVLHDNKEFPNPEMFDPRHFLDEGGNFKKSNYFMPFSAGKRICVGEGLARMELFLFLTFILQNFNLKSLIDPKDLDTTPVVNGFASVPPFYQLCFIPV

SMILES	Kd [1] [nM]	Kd [2] [µM]	inhibition at 10 min, 10 µM [3] [%]	MRT inf [4] [h]	Activity [5]	AUC(0-t) at 24 h [6] [ng·h/mL]	Vd [7] [L/kg]	C0 at 24 h [8] [ng/mL]	CLint [9] [mL/min/kg]	inhibition at 10 min, 10 µM [10] [%]	inhibition at 10 min, 10 µM [11] [%]	Activity [12]	inhibition at 10 min, 10 µM [13] [%]	Activity [14]	half-life [15] [min]
CNC(=O)c1noc(-c2cc(-c3ccc(C)cc3)c(O)cc2O)c1-c1ccc(CN2CCOCC2)cc1	933	> 25													
CCNC(=O)c1noc(-c2cc(-c3ccc(C)cc3)c(O)cc2O)c1-c1ccc(CN2CCOCC2)cc1			56.1	1.12	Active	3010	11.2	4750	81.6	36.4	17.8	Active	56.9	Active	30.6
